The values that follow come from BindingDB's records for PubMed 11160654 (Kitasato University, 2001).

Broadly, the pKi is the negative decadic logarithm of the Ki, by convention in mol/L.

This assay addresses Glutamate receptor 3 (Rattus norvegicus, UniProt P19492).

Structures are written as SMILES. pKi: −log10 of the molar value.

Sequence of Glutamate receptor 3 (P19492 whole entry): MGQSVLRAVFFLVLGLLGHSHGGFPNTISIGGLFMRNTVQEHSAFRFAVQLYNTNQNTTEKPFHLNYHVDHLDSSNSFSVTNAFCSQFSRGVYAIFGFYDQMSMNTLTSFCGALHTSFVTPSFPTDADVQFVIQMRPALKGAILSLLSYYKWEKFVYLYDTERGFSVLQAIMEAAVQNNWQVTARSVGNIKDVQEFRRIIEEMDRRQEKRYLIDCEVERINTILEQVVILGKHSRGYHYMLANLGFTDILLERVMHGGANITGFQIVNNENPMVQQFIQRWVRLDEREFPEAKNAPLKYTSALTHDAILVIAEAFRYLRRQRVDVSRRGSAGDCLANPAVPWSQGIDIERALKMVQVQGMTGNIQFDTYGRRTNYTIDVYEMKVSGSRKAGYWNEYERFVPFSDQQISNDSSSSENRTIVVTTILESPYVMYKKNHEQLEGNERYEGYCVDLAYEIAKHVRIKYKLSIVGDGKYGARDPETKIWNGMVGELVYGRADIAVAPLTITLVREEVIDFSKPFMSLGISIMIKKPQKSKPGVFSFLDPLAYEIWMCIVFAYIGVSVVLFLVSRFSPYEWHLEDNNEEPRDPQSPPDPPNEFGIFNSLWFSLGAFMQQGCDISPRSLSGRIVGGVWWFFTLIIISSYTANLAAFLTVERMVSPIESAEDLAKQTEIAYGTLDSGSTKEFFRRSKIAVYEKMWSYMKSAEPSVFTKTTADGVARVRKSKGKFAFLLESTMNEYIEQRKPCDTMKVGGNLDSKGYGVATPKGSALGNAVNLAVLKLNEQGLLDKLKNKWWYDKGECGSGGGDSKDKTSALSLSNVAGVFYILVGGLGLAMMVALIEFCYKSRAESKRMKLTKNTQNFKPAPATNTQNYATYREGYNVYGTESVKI

For `CN[C@H](CC(=O)O)C(=O)O` [NMDA], the negative logarithm of the Ki (pKi) was 5.41.
